Test results from US20250295679A1, “Compositions and Dosage Forms for Treatment of HPV Infection and HPV-Induced Neoplasia” (priority 2022, published 2025).
Read-outs that look alike come from different tables or passages of the source.

How the values were obtained:
Hs27 cells = test system: Hs27 cells
Description: (§1) Three compounds (Compound I, Compound II and Compound III) were solubilized at 40 mM in DMSO and stored at −20° C. The test compounds were evaluated using a high test concentration of 50 μM. Serial half-logarithmic dilutions were performed for the in vitro cytotoxicity assays.
(§2) Cells listed in Table 70 were enumerated by Trypan Blue Dye exclusion method and seeded in the interior wells of a 96 well flat bottom microtiter plate at 100 μL/well. Proliferating cells were incubated overnight at 37° C./5% CO2 to allow the cells to adhere to the plates at approximately 70% confluency. Tissue culture medium was removed and replaced with 100 μL/well of fresh medium. One-hundred microliters (100 μL) of each compound at six concentrations was transferred to the 96-well plate containing the cells in triplicate. Table 70 lists the cell line, type of cell, source of cell stock, base tissue culture medium supplemented with 10% fetal bovine serum, 2 mM L-glutamine, 100 U/mL penicillin and 100 μg/mL streptomycin, and microtiter plate seeding density.
(§3) Following incubation at 37° C. in a 5% CO2 incubator for five days, the test plates were stained with the tetrazolium dye XTT (2,3-bis(2-methoxy-4-nitro-5-sulfopheny1)-5-[(phenylamino)carbonyl]-2H-tetrazolium hydroxide). XTT-tetrazolium was metabolized by the mitochondrial enzymes of metabolically active cells to a soluble formazan product. XTT solution was prepared daily as a stock of 1 mg/ml in RPM11640. Phenazine methosulfate (PMS) solution was prepared at 0.15 mg/ml in PBS and stored in the dark at −20° C. XTT/PMS stock was prepared immediately before use by adding 40 μL of PMS per ml of XTT solution. Fifty microliters of XTT/PMS were added to each well of the plate and the plate was reincubated for 4 hours at 37° C. Plates were sealed with adhesive plate sealers and shaken gently or inverted several times to mix the soluble formazan product and the plate was read spectrophotometrically at 450/650 nm with a Molecular Devices Vmax plate reader.
(§4) Microsoft Excel 2010 was used to analyze and graph the raw data. […] Raw data for cytotoxicity with a graphic representation of the data are provided in a printout summarizing the compound effect on cell viability.
(§5) Compounds I, II, and III were evaluated for cytotoxicity to proliferating Hs27, HeLa, C33A and HEK293 cells by measuring cell viability using XTI tetrazolium dye following five days in culture (Table 71).

HeLa cells = test system: HeLa cells
Description: as §1, §2, §3, §4, §5

C33A cells = test: In vitro cytotoxicity, XTT, five days; conditions: read-out: C33A CC50, proliferating C33A cells
Description: as §1, §2, §3, §4, §5

HEK293 cells = test: In vitro cytotoxicity, XTT, five days
Description: as §1, §2, §3, §4, §5

[1] = Tablet stability study (storage, purity by HPLC); assay type: physicochemical; conditions: for Degradation of tablets: within one month at 40° C. and 75% RH
Description: Tablets were prepared using the excipients and excipient ratios shown in the first column of the following tables. The tablets were then stored under the conditions indicated and periodically sampled and tested for purity by HPLC.

[2] = Bulk (accelerated) stability, one week, HPLC and XRPD; conditions: initial chemical purity before storage
Description: Bulk stability: Accelerated stability experiments were conducted at 25° C./92% RH and 40° C./75% RH in an open container, 60° C. in a tight container for one week.
Samples were characterized by XRPD and HPLC and inspected for color change.
Accelerated stability experiments were conducted at 25° C./92% RH in an open container, at 40° C./75% RH in an open container, and at 60° C. in a tight container for one week.

[3] = Solubility in buffers, water and simulated vaginal fluid at 37° C.; conditions: 37° C.
Description: About 4 mg of Compound I Pattern 1 was added into 2 mL of buffer solution.
(§6) Solubility was tested in five media, pH 3.0 citrate buffer, pH 4.5 acetate buffer, pH 6.8 phosphate buffer, water, simulated vaginal fluid (pH 4.2) at 37° C. for 0.5 h and 2 h.
The salt amount used is equivalent to 10 mg anhydrous free base. […] The obtained clear solutions were analyzed by pH meter for pH, and solubility was determined by observation.
as §6

[4] = Hygroscopicity by DVS at 25° C.; assay type: physicochemical; conditions: for XRPD after DVS test: after humidity cycle 40-0-95-0-40% RH, 25° C.
Description: Hygroscopicity was investigated by DVS at 25° C., using the following method: • Method: 40-0-95-0-40% RH, dm/dt=0.002

[5] = Behavior under compression, grinding and granulation simulation (XRPD); assay type: physicochemical
Description: About 10 mg of Compound I monofumarate Pattern 1 (Example 7) was compressed for 5 minutes at 10 MPa with a hydraulic press. XRPD characterization was performed to investigate the polymorphic behavior under compression.
About 10 mg of Compound I monofumarate Pattern 1 (Example 7) was ground manually with a mortar and pestle for 5 min. Form transformation and degree of crystallinity was evaluated by XRPD.
Water or ethanol was added drop wise to about 10 mg of Compound I monofumarate Pattern 1 (Example 7) until solids were wetted sufficiently. The samples were ground manually with a mortar and pestle for 3 minutes. Samples are dried under ambient condition for 10 min.
Form transformation and degree of crystallinity were evaluated by XRPD.

[6] = solution in pH 3.0 100 mM citrate buffer
[7] = solution in pH 4.5 50 mM acetate buffer
[8] = solution in pH 6.8 50 mM phosphate buffer
[9] = solution in simulated vaginal fluid (pH adjusted with 0.2N NaOH)
[10] = ground manually with mortar and pestle for 5 min

CCOC(=O)[C@H](C)N[P@](=O)(COCCn1cnc2c(OC)nc(N)nc21)OCc1ccccc1 (single isomer, unassigned; isomer 1) [AB12280 Isomer 1]
CC50 (Hs27 cells): 23.2 µM
CC50 (HeLa cells): 15.1 µM
CC50 (C33A cells): 0.2 µM
CC50 (HEK293 cells): < 0.16 µM

CCOC(=O)[C@H](C)NP(=O)(COCCn1cnc2c(OC)nc(N)nc21)OCc1ccccc1 (stereo partly drawn) [Compound I, ethyl(((2-(2-amino-6-methoxy-9H-purin-9-yl)ethoxy)methyl)(benzyloxy)-phosphoryl)-L-alaninate]
Degradation of tablets [1]: substantially degrade
HPLC purity, Initial ([2]; listed as Compound I free base Pattern 1): 98.7%
pH at 2 hrs [3, 6]: (2.98)
pH at 2 hrs [3, 7]: (4.50)
pH at 2 hrs [3, 8]: (6.81)
pH at 2 hrs [3, 9]: (5.53)
pH at 2 hrs ([3]; solution in water): (7.55)
Desorption (%) Cycle 1 ([4]; 0% RH, DVS 25° C.): 0.00%
Desorption (%) Cycle 2 ([4]; 0% RH, DVS 25° C.): 0.19%
Sorption (%) Cycle 1 ([4]; 0% RH, DVS 25° C.): 0.00%
Sorption (%) Cycle 2 ([4]; 0% RH, DVS 25° C.): 0.19%
Desorption (%) Cycle 1 ([4]; 10% RH, DVS 25° C.): 0.11%
Desorption (%) Cycle 2 ([4]; 10% RH, DVS 25° C.): 0.37%
Sorption (%) Cycle 1 ([4]; 10% RH, DVS 25° C.): 0.08%
Sorption (%) Cycle 2 ([4]; 10% RH, DVS 25° C.): 0.22%
Desorption (%) Cycle 1 ([4]; 20% RH, DVS 25° C.): 0.23%
Desorption (%) Cycle 2 ([4]; 20% RH, DVS 25° C.): 0.57%
Sorption (%) Cycle 1 ([4]; 20% RH, DVS 25° C.): 0.17%
Sorption (%) Cycle 2 ([4]; 20% RH, DVS 25° C.): 0.30%
Desorption (%) Cycle 1 ([4]; 30% RH, DVS 25° C.): 0.47%
Desorption (%) Cycle 2 ([4]; 30% RH, DVS 25° C.): 0.83%
Sorption (%) Cycle 1 ([4]; 30% RH, DVS 25° C.): 0.28%
Sorption (%) Cycle 2 ([4]; 30% RH, DVS 25° C.): 0.44%
Desorption (%) Cycle 1 ([4]; 40% RH, DVS 25° C.): 0.60%
Desorption (%) Cycle 2 ([4]; 40% RH, DVS 25° C.): 1.09%
Sorption (%) Cycle 1 ([4]; 40% RH, DVS 25° C.): 0.41%
Sorption (%) Cycle 2 ([4]; 40% RH, DVS 25° C.): 0.62%
Desorption (%) Cycle 2 ([4]; 50% RH, DVS 25° C.): 1.48%
Sorption (%) Cycle 1 ([4]; 50% RH, DVS 25° C.): 0.61%
Desorption (%) Cycle 2 ([4]; 60% RH, DVS 25° C.): 1.96%
Sorption (%) Cycle 1 ([4]; 60% RH, DVS 25° C.): 0.85%
Desorption (%) Cycle 2 ([4]; 70% RH, DVS 25° C.): 2.78%
Sorption (%) Cycle 1 ([4]; 70% RH, DVS 25° C.): 1.14%
Desorption (%) Cycle 2 ([4]; 80% RH, DVS 25° C.): 4.33%
Sorption (%) Cycle 1 ([4]; 80% RH, DVS 25° C.): 1.64%
Desorption (%) Cycle 2 ([4]; 90% RH, DVS 25° C.): 9.10%
Sorption (%) Cycle 1 ([4]; 90% RH, DVS 25° C.): 4.27%
Desorption (%) Cycle 2 ([4]; 95% RH, DVS 25° C.): 14.32%
Sorption (%) Cycle 1 ([4]; 95% RH, DVS 25° C.): 14.32%
XRPD after DVS test [4]: No form change,

CCOC(=O)[C@H](C)NP(=O)(COCCn1cnc2c(OC)nc(N)nc21)OCc1ccccc1.O=C(O)/C=C/C(=O)O (mixture of isomers) [Compound I monofumarate, (±)-(2S)-ethyl-2-((((2-(2-amino-6-methoxy-9H-purin-9-yl)-ethoxy)-methyl)-(benzyloxy)-phosphoryl)-amino)-propionate monofumarate]
Degradation of tablets compared with tablets produced from Compound I ([1]; range of different formulations, purity by HPLC): degraded less
Degradation of tablets [1]: far less degradation
Form change by XRPD under compression ([5]; compressed 5 minutes at 10 MPa): no form change was observed
Crystallinity by XRPD after grinding [5, 10]: crystallinity slightly decreased
Form change by XRPD after grinding [5, 10]: no form change was observed
Form change by XRPD after granulation simulation ([5]; wetted with water or ethanol, ground 3 minutes, dried): neither in ethanol, nor in water form change was observed
HPLC purity, Initial ([2]; listed as Compound I monofumarate Pattern 1, monofumarate): 98.6%
pH at 2 hrs [3, 6]: (3.05)
pH at 2 hrs [3, 7]: (4.36)
pH at 2 hrs [3, 8]: (6.49)
pH at 2 hrs [3, 9]: (5.39)
pH at 2 hrs ([3]; solution in water): (3.11)
Desorption (%) Cycle 1 ([4]; 0% RH, DVS 25° C.): 0.49%
Desorption (%) Cycle 2 ([4]; 0% RH, DVS 25° C.): 0.09%
Sorption (%) Cycle 1 ([4]; 0% RH, DVS 25° C.): 0.49%
Sorption (%) Cycle 2 ([4]; 0% RH, DVS 25° C.): 0.09%
Desorption (%) Cycle 1 ([4]; 10% RH, DVS 25° C.): 0.62%
Desorption (%) Cycle 2 ([4]; 10% RH, DVS 25° C.): 0.15%
Sorption (%) Cycle 1 ([4]; 10% RH, DVS 25° C.): 0.56%
Sorption (%) Cycle 2 ([4]; 10% RH, DVS 25° C.): 0.18%
Desorption (%) Cycle 1 ([4]; 20% RH, DVS 25° C.): 0.71%
Desorption (%) Cycle 2 ([4]; 20% RH, DVS 25° C.): 0.35%
Sorption (%) Cycle 1 ([4]; 20% RH, DVS 25° C.): 0.66%
Sorption (%) Cycle 2 ([4]; 20% RH, DVS 25° C.): 0.27%
Desorption (%) Cycle 1 ([4]; 30% RH, DVS 25° C.): 0.81%
Desorption (%) Cycle 2 ([4]; 30% RH, DVS 25° C.): 0.47%
Sorption (%) Cycle 1 ([4]; 30% RH, DVS 25° C.): 0.76%
Sorption (%) Cycle 2 ([4]; 30% RH, DVS 25° C.): 0.37%
Desorption (%) Cycle 1 ([4]; 40% RH, DVS 25° C.): 0.93%
Desorption (%) Cycle 2 ([4]; 40% RH, DVS 25° C.): 0.56%
Sorption (%) Cycle 1 ([4]; 40% RH, DVS 25° C.): 0.86%
Sorption (%) Cycle 2 ([4]; 40% RH, DVS 25° C.): 0.47%
Desorption (%) Cycle 2 ([4]; 50% RH, DVS 25° C.): 0.67%
Sorption (%) Cycle 1 ([4]; 50% RH, DVS 25° C.): 0.71%
Desorption (%) Cycle 2 ([4]; 60% RH, DVS 25° C.): 0.85%
Sorption (%) Cycle 1 ([4]; 60% RH, DVS 25° C.): 0.85%
Desorption (%) Cycle 2 ([4]; 70% RH, DVS 25° C.): 1.04%
Sorption (%) Cycle 1 ([4]; 70% RH, DVS 25° C.): 1.02%
Desorption (%) Cycle 2 ([4]; 80% RH, DVS 25° C.): 1.30%
Sorption (%) Cycle 1 ([4]; 80% RH, DVS 25° C.): 1.27%
Desorption (%) Cycle 2 ([4]; 90% RH, DVS 25° C.): 1.84%
Sorption (%) Cycle 1 ([4]; 90% RH, DVS 25° C.): 1.78%
Desorption (%) Cycle 2 ([4]; 95% RH, DVS 25° C.): 2.89%
Sorption (%) Cycle 1 ([4]; 95% RH, DVS 25° C.): 2.89%
XRPD after DVS test [4]: No form change,
Water uptake ([4]; up to / in 95% RH, DVS 25° C.): about 2.9%

CCOC(=O)C(C)NP(=O)(COCCn1cnc2c(OC)nc(N)nc21)OCc1ccccc1 (mixture of isomers) [AB12280]
CC50 (HEK293 cells; read-out: HEK293 CC50, proliferating HEK293 cells, XTT, five days): < 0.16 µM

CCOC(=O)[C@H](C)N[P@@](=O)(COCCn1cnc2c(OC)nc(N)nc21)OCc1ccccc1 (single isomer, unassigned; isomer 2) [AB12280 Isomer 2]
CC50 (Hs27 cells): 7.62 µM
CC50 (HeLa cells): 16.9 µM
CC50 (C33A cells): < 0.16 µM
CC50 (HEK293 cells): < 0.16 µM
